Patent publication US20240383922A1, “KRAS Modulating Compounds” (Gilead Sciences, Inc., priority 2023, published 2024)
Where two headings read alike, the source gives them in different places.

What was measured:
[1] = biological target: GDP-loaded KRAS-G12C (Homo sapiens (Human), UniProt P01116, G12C); test: KRAS (GDP) biochemical TR-FRET probe displacement assay, KRAS-G12C; type: binding; conditions: 2 hours
Description: (§1) KRAS (GDP) Biochemical Assays:
(§2) Compounds were serially diluted (1:3) in DMSO. The LabCyte ECHO Acoustic dispenser was used to pre-spot the assay plates (384-well Non-Binding Surface plates, Corning, Catalog #3824) with 50 nL of compound. 5 μL of 2× enzyme concentration was added to the pre-spotted plates and incubated for 30 minutes before adding 5 μL of 2× concentration of Eu-streptavidin and Cy-5 labelled probe (10 μL final reaction volume). The plates were incubated at room temperature for 2 hours before measuring TR-FRET ratio (665 nm/615 nm) on the Envision multimode plate reader. The ratios were normalized to a positive (saturating concentration of known inhibitor) and negative (DMSO) control and plotted against the log of compound concentration.

[2] = test system: cellular pERK in ASPC-1 (KRAS G12D) cell-line; test: Cell based pERK assay (HTRF), ASPC-1; conditions: ASPC-1 (KRAS G12D) cells, 2 hours incubation
Outline: (§3)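 Read-out: HTRF phospho-ERK1/2 ratio (665/615 nm) after overnight lysis at RT. This followed a 2 h, 37 °C compound exposure of cells plated the day before. Signals were normalized to DMSO and a saturating known inhibitor. IC50 came from a sigmoidal dose-response fit.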

[3] = biological target: GDP-loaded wild-type KRAS (WT) (Homo sapiens (Human), UniProt P01116); test: KRAS (GDP) biochemical TR-FRET probe displacement assay, WT KRAS; type: binding; conditions: 2 hours
Chain of GDP-loaded wild-type KRAS (WT) (P01116-2 other isoform, or with tags, fused parts or gaps): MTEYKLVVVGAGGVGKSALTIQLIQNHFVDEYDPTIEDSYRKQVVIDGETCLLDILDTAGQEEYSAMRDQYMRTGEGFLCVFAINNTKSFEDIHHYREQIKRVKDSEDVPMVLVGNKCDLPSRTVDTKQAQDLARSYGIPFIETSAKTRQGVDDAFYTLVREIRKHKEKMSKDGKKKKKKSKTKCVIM
Description: as §1, §2

[4] = biological target: GDP-loaded KRAS-G12D (Homo sapiens (Human), UniProt P01116, G12D); test: KRAS (GDP) biochemical TR-FRET probe displacement assay, KRAS-G12D; type: binding; conditions: 2 hours
Chain of GDP-loaded KRAS-G12D (P01116-2 other isoform, or with tags, fused parts or gaps G12D): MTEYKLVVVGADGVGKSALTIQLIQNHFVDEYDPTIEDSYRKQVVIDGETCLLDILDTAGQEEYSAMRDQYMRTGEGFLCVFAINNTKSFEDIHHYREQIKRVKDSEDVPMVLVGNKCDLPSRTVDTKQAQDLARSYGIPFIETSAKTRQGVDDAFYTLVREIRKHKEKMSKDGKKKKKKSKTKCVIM
Description: as §1, §2

[5] = test system: cellular pERK in NCI-H441 (KRAS-G12V) cell-line; test: Cell based pERK assay (HTRF), NCI-H441; conditions: NCI-H441 (KRAS-G12V) cells, 2 hours incubation
Outline: as §3

[6] = biological target: GDP-loaded KRAS-G12V (Homo sapiens (Human), UniProt P01116, G12V); test: KRAS (GDP) biochemical TR-FRET probe displacement assay, KRAS-G12V; type: binding; conditions: 2 hours
Chain of GDP-loaded KRAS-G12V (P01116-2 other isoform, or with tags, fused parts or gaps G12V): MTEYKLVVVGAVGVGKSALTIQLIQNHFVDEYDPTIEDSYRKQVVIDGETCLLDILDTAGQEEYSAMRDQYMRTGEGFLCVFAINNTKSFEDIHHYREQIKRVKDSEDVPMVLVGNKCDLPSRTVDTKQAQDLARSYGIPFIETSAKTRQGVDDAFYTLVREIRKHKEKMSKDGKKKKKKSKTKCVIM
Description: as §1, §2

[7] = test system: cellular pERK in MIA-PaCa-2 (KRAS-G12C) cell-line; test: Cell based pERK assay (HTRF), MIA-PaCa-2; conditions: MIA-PaCa-2 (KRAS-G12C) cells, 2 hours incubation, read-out: MIAPaCa2 pERK EC50
Outline: as §3

[8] = test system: cellular pERK in Kuramochi (WT KRAS) cell-line; test: Cell based pERK assay (HTRF), Kuramochi; conditions: Kuramochi (WT KRAS) cells, 2 hours incubation
Outline: as §3

Chain of GDP-loaded KRAS-G12C (P01116-2 other isoform, or with tags, fused parts or gaps G12C): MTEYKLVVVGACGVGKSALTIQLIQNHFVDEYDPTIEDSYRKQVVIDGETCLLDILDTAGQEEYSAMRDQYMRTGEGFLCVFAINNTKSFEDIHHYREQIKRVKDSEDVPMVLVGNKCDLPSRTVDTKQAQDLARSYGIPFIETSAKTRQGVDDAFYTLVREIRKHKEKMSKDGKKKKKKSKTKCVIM

SMILES	IC50 [1]	EC50 ([2]; read-out: AsPC1 pERK EC50)	IC50 [3]	IC50 [4]	EC50 [5]	IC50 [6]	EC50 [7]	EC50 [8]	EC50 ([2]; Homo sapiens, ASPC1)	EC50 ([5]; Homo sapiens)	EC50 ([7]; Homo sapiens)
Cc1cc(N)nc(-c2c(Cl)c3c4c(nc(OC[C@@]56CCCN5C[C@H](F)C6)nc4c2F)N2CCCOCC2CC3)c1C(F)(F)F (mixture of isomers) [Example 21-1, 6-(12-chloro-10-fluoro-8-(((2R,7aS)-2-fluorotetrahydro-1H-pyrrolizin-7a(5H)-yl)methoxy)-1,4,5,13,14,14a-hexahydro-3H-[1,4]oxazepino[4′,3′:1,7]azepino[2,3,4-de]quinazolin-11-yl)-4-methyl-5-(trifluoromethyl)pyridin-2-amine]	1440 nM	27100 nM	5290 nM	17500 nM	7240 nM	4960 nM	4640 nM	> 956 nM			
C#Cc1c(F)ccc2cc(O)cc(-c3nc4c5c(nc(OC[C@@]67CCCN6C[C@H](F)C7)nc5c3F)N3CCOCC[C@@H]3CC4)c12 (single isomer, unassigned) [Example 9-2]	0.06 nM		0.06 nM	0.15 nM		0.1 nM		1.59 nM	11.7 nM	2.14 nM	0.23 nM
C#Cc1c(F)ccc2cc(O)cc(-c3nc4c5c(nc(OC[C@@]67CCCN6[C@H](COc6cc(C(F)(F)F)ncn6)CC7)nc5c3F)N3CCCOC[C@@H]3CC4)c12 [Example 6-12]	0.92 nM		0.67 nM	0.47 nM		0.22 nM		1.34 nM	1.53 nM	0.73 nM	0.149 nM
C#Cc1c(F)ccc2cc(O)cc(-c3nc4c5c(nc(OC[C@@]67CCCN6[C@H](COc6nccnc6C(F)C(C)F)CC7)nc5c3F)N3CCCOC[C@@H]3CC4)c12 (stereo partly drawn) [Example 6-14]	0.08 nM		0.05 nM	0.09 nM		0.09 nM		3.46 nM	3.5 nM	2.07 nM	0.32 nM
C#Cc1c(F)ccc2cccc(-c3nc4c5c(nc(OC[C@@]67CCCN6[C@H](COc6cc(C(F)(F)F)ncn6)CC7)nc5c3F)N3CCCOC[C@@H]3CC4)c12 [Example 6-15]	36.6 nM		67.9 nM	38.5 nM		29.2 nM		231 nM	> 859 nM	> 749 nM	403 nM
C#Cc1c(F)ccc2cc(O)cc(-c3nc4c5c(nc(OC[C@@]67CCCN6C/C(=C\F)C7)nc5c3F)N3CCCOC[C@@H]3CC4)c12 [Example 6-23]	0.05 nM		0.06 nM	0.04 nM		0.05 nM		1.14 nM	0.44 nM	0.2 nM	0.06 nM
C#Cc1c(F)ccc2cc(O)cc(C3=C(F)C4N=C(OC[C@@]56CCCN5C[C@H](F)C6)N=C5C4C(=C3F)C(C)=C[C@H]3COCCCN53)c12 (stereo partly drawn) [Example 6-28]	2.53 nM		3.43 nM	2.82 nM		2.69 nM		11.7 nM	17.1 nM	7.98 nM	2.34 nM
C#Cc1c(F)ccc2cc(N)cc(-c3nc4c5c(nc(OC[C@@]67CCCN6C[C@H](F)C7)nc5c3F)N3CCCOC[C@@H]3CC4)c12 [Example 7-1, 5-ethynyl-6-fluoro-4-((S)-1-fluoro-12-(((2R,7aS)-2-fluorotetrahydro-1H-pyrrolizin-7a(5H)-yl)methoxy)-4,5,5a,6,9,10-hexahydro-8H-7-oxa-3,10a,11,13-tetraazanaphtho[1,8-ab]heptalen-2-yl) naphthalen-2-amine]	0.9 nM		3.87 nM	2.73 nM		1.78 nM		2.09 nM	17.9 nM	4.46 nM	4.12 nM
C#Cc1c(F)ccc2cc(N)cc(-c3nc4c5c(nc(OC[C@@]67CCCN6[C@H](COc6cc(C(F)(F)F)ncn6)CC7)nc5c3F)N3CCCOC[C@@H]3CC4)c12 [Example 7-4]	1.02 nM		2.26 nM	4.5 nM		2.01 nM		4.47 nM	26.3 nM	8.95 nM	9.04 nM
